This is an account of results in patent US12102432B2, “Uses of transdermal glomerular filtration rate measurement in continuous renal replacement therapy” (MediBeacon Inc., priority 2018, dated 2024).

The nature of data set [1]: Adsorption of MB-102 to CRRT apparatus, in vitro CVVH model. It counts as in vitro ADME, bovine. Conditions: for mean percent change at the end of experiment: average of 6 experiments, 60 min. Here is the method:
As an initial step, it was determined if the compound MB-102 adsorbs onto the hemodiafilter, tubing or other parts of the CRRT instrument. This study used a continuous venovenous hemofiltration (CVVH) configuration to assess MB-102 adsorptive clearance with a previously validated in vitro CVVH model using 1 L of pH regulated, citrate-anti-coagulated bovine blood. Using a Braun DIAPACT™ CRRT system, two different hemodiafilters were tested: the HF1400 and the M150 hemodiafilters. New bovine blood, hemodiafilters, and CRRT tubing sets were used in each experiment. The blood was continuously stirred and maintained at 37° C. in a water bath during all experiments. Reconstituted MB-102 was added to the blood to achieve a final concentration of ˜6.2 mg/L. Urea was used as a control and added to the blood to produce a blood urea nitrogen (BUN) concentration of ˜75 mg/dL. Blood flow rates of 200 mL/min with an ultrafiltration rate (Quf) of 33 mL/min were tested. This maximized MB-102 contact with the membranes, both on the blood side and via convection through the hemodiafilter membrane. A closed system was developed to maintain a constant volume in the extracorporeal system. The effluent was used as the replacement fluid which was returned to the blood as a post-filter replacement fluid to maintain a constant blood volume. The CRRT instrument was primed with normal saline before operation, consequently the urea and MB-102 dilution caused by the residual priming solution was accounted for. Blood samples were collected from the pre-filter port at 0 (baseline), 5 (at which time mixing was complete), 10, 20, 30, and 60 minutes. Each experiment was repeated six times with new hemodiafilters and tubing sets.
Equations used to calculate the dilution factor and adsorption are as follows:
[formula] wherein C0 is the concentration of MB-102 in the pre-filter at time=0 minutes; and C60 is the concentration of MB-102 in the pre-filter at time=60 minutes.
[formula] where [Urea0] is the urea concentration in the pre-filter at time=0 minutes; and [Urea60] is the urea concentration in the pre-filter at time=60 minutes.
All blood samples were collected and centrifuged at 3000 rpm for 10 minutes. The plasma and effluent samples were transferred to cryovials in duplicate and stored at −80° C. until analysis. BUN concentrations were analyzed with Advia 1800 (Siemens Healthcare Diagnostic Inc., Tarrytown, N.Y., USA) having a lower limit of quantification of 5 mg/dL. […]

The nature of data set [2]: In vivo clearance by CVVH in porcine model with bilateral nephrectomy. Set-up: species or system Swine. The method, then:
Swine (3 male and 3 female, for both CVVH and CVVHD modalities) weighing 35-40 kg were used. In this model, a total functional nephrectomy was achieved by ligation of all renal arteries. Animals were inspected by professional veterinary staff within 48 hours of arrival. Any underlying infections or parasitism was treated based on veterinary recommendations.
Prior to study, the animals were fasted overnight (with water ad libitum) to reduce the risk of aspiration. On the morning of the study, animals were sedated with an intramuscular injection of Telazol/Xylazine (or a Ketamine/xylazine combination) at recommended doses and transported to the operating theatre. Pigs were then anesthetized via inhalation of 5% isoflurane in oxygen via mask. A catheter was placed in the marginal ear vein to provide immediate venous access for further medications and IV fluids.
Pigs were orotracheally intubated and the isoflurane concentration reduced to 1%-3% to maintain anesthesia for the duration of the experiment. Pigs were mechanically ventilated using a tidal volume of 10 mL/kg and respiratory rate adjusted to keep a P(CO2) of 40±2 mmHg. A three lead electrocardiogram was used to monitor heart rate and rhythm. Core body temperature was measured with a rectal thermistor probe and maintained at 37-39° C. with the use of a circulating water blanket.
Hair was removed from the ventral neck, abdominal and/or the femoral regions, and these sites were prepared for aseptic surgery. Lidocaine was injected at incision site(s). When a surgical plane of anesthesia was reached, the right carotid artery was approached via cut down incision and cannulated for continuous blood pressure monitoring. This facilitated withdrawal of blood samples for the study and for the determination of respiratory gases, acid-base status and glucose concentration. A catheter was placed in the right jugular/femoral vein to infuse medications or replacement fluids and an 11 Fr hemodialysis catheter was placed into the left jugular vein for both CVVH and CVVHD procedures.
The abdomen was then opened via a midline laparotomy. The renal hilum was identified, and ties were placed around the renal artery or arteries: for partial or total ligation as dictated by study requirements (full-function nephrectomy via total ligation of all renal arteries, and full-function nephrectomy of one kidney and partial ligation of the second kidney). Perivascular flow probes were placed around the proximal renal artery of the kidneys in situ, as required. […] A purse-sting suture was placed in the urinary bladder and a small cystotomy incision was performed to advance a Foley catheter for urine collection and quantification, as required.
Due to the length of time of study, the abdomen was closed in 2-3 layers with appropriate suture material to prevent desiccation of tissues. Suture patterns allowed for external extension of tubing and flow probe lines for equipment attachment as required. Following complete instrumentation, the pig was stabilized. Vital signs were monitored continuously and, once stable, either the CVVH and CVVHD experiment was initiated.
After taking a pre-MB-102 blood sample (baseline), a dose of 6 mg/kg of MB-102 was injected as a single bolus, followed by a 90 minute period of equilibration, to allow for MB-102 systemic redistribution (see FIGS. 7 and 13 for equilibration of fluorescent signal detected by the renal monitoring assembly). Thirty minutes after the MB-102 injection, Meropenum was infused for 30 minutes, which reached a peak concentration in blood ˜1 hr after the start of the infusion. After drug equilibration, CRRT was initiated (either CVVH or CVVHD) at a blood flow rate (BFR) of 100 mL/min with corresponding 20 mL/kg/hr effluent rate during a time-course of 90 minutes (with collections at 0, 30, 60, 90 minutes). […]

Where [3] appears, read: assembly on chest (QLS26), blood flow rate 100, effluent flow rate 20 mL/min, 1st of four regions.
Setting [4] is: assembly on chest (QLS26), blood flow rate 100, effluent flow rate 20 mL/min, 3rd of four regions.
Setting [5] is: assembly on chest (QLS26), blood flow rate 200, effluent flow rate 35 mL/min, 2nd of four regions.
[6] abbreviates: assembly on chest (QLS26), blood flow rate 200, effluent flow rate 35 mL/min, 4th of four regions.
Where [7] appears, read: assembly on sternum (QLS25), blood flow rate 100, effluent flow rate 20 mL/min, 1st of four regions.
Where [8] appears, read: assembly on sternum (QLS25), blood flow rate 100, effluent flow rate 20 mL/min, 3rd of four regions.
[9] abbreviates: assembly on sternum (QLS25), blood flow rate 200, effluent flow rate 35 mL/min, 2nd of four regions.
The mark [10] stands for this setting: assembly on sternum (QLS25), blood flow rate 200, effluent flow rate 35 mL/min, 4th of four regions.

Each structure is given as a SMILES string. “Also recorded” adds a separate entry of the source.

Turning to `Nc1nc(C(=O)N[C@H](CO)C(=O)O)c(N)nc1C(=O)N[C@H](CO)C(=O)O` [MB-102, (2R,2′R)-2,2′-((3,6-diaminopyrazine-2,5-dicarbonyl)bis(azanediyl))bis(3-hydroxypropanoic acid)], in data set [1] (HF1400 and M150 hemodiafilters), the “adsorption to CRRT materials (tubing, hemodiafilters)” value was “not observed; also recorded: does not bind”. Also, the “mean percent change at the end of experiment” value in data set [1] (HF1400 hemodiafilter) amounted to 18.7%; in data set [1] (M150 hemodiafilter), 18.9%. Further, the “MB-102 Clearance Rate Constant” value came out at 0.1129 h⁻¹ in data set [2] (setting [3]); 0.0879 h⁻¹ in data set [2] (setting [4]); 0.1314 h⁻¹ in data set [2] (setting [5]); 0.1308 h⁻¹ in data set [2] (setting [6]); 0.1145 h⁻¹ in data set [2] (setting [7]); 0.0763 h⁻¹ in data set [2] (setting [8]). The results for the “MB-102 Clearance Rate Constant” value in data set [2] (setting [9]) and in data set [2] (setting [10]) were 0.145 h⁻¹ and 0.1238 h⁻¹, respectively. Besides, the RDTC in data set [2] (setting [3]) was 8.86 h; in data set [2] (setting [4]) it was 11.38 h; in data set [2] (setting [5]), 7.61 h; in data set [2] (setting [6]) it was 7.64 h; in data set [2] (setting [7]), 8.73 h; in data set [2] (setting [8]), 13.11 h. For the same compound, the RDTC in data set [2] (setting [9]) was 6.90 h; in data set [2] (setting [10]) it was 8.08 h.
